# Data as given in publication PMC10982999, “Structure-Guided Design and Optimization of Covalent VHL-Targeted Sulfonyl Fluoride PROTACs” (Journal of Medicinal Chemistry, 2024).
# Target: T1, VHL in HEK293T cells (Homo sapiens, UniProt P40337)
# T1 construct: endogenous in cells; host or cells: HEK293T
# Experiment: Gel-based competition pull-down assay from live cells
# Type: cell-based
# Settings: HEK293T cells pretreated 2 h at 37 °C; lysate treated with VHL-SF2-Biotin 50 μM 2 h
# Experimental: Figure 2 (A) Structure of VHL-SF2. […] (E) Competition pull-down assay from live cells between VHL-SF2-Biotin and VHL-SF2. HEK293T cells were pretreated with DMSO or varying concentrations of VHL-SF2 for 2 h at 37 °C. The cells were lysed and treated with DMSO or VHL-SF2-Biotin (50 μM) for 2 h at room temperature. A pull-down with streptavidin beads was conducted, after which the protein was resolved on SDS/PAGE. VHL and loading control GAPDH levels were visualized by Western blotting.
# Initially, we subjected VHL-SF2-Biotin to the streptavidin shift assay and observed a greater extent of VHL modification (44%) than for VHL-SF1-Biotin under the same conditions (Figure S2). […] Intact LC–MS analysis confirmed single labeling of VHL by VHL-SF2, with 65% conversion at 24 h (Figure S5). Although we attempted several site ID identification experiments by digesting the labeled recombinant VHL, the Ser110-containing peptide was not detected in the samples treated with VHL-SF2. This observation is consistent with a change in peptide properties that is incompatible with mass spectrometry detection compared to untreated samples (Table S2). […]
# VCB (11.1 mg/ mL) was diluted with PBS pH 7.4 (2 µg/ mL). […] 10 µL of each sample was loaded onto the gel and the bands were quantified […]
smiles,measurement,value
"Cc1cc([C@H](C(=O)N2C[C@H](S(=O)(=O)F)C[C@H]2C(=O)N[C@@H](CC(=O)OC(C)(C)C)c2ccc(-c3scnc3C)cc2)C(C)C)on1 [VHL-SF2, tert-Butyl (S)-3-((2S,4R)-4-(Fluorosulfonyl)-1-((R)-3-methyl-2-(3-methylisoxazol-5-yl)butanoyl)pyrr-olidine-2-carboxamido)-3-(4-(4-methylthiazol-5-yl)phenyl)propanoate]",pull-down of VHL by VHL-SF2-Biotin after compound pretreatment,dose-dependently competed
